Assay results from ChEMBL document CHEMBL3988442, “University of Dundee, Small-Polar-MMV Screening Library” (2021).
Where “and” joins values, the source holds several entries; their conditions need not be identical. Equal entries are not always repeated.

Molecular target: Polyketide synthase Pks13 (Mycobacterium tuberculosis (strain ATCC 25618 / H37Rv), UniProt I6X8D2)
Assay: Mycobacterium tuberculosis Polyketide synthase 13 Thioesterase (PKS13)
Type: functional

Chain of Polyketide synthase Pks13 (I6X8D2 whole entry): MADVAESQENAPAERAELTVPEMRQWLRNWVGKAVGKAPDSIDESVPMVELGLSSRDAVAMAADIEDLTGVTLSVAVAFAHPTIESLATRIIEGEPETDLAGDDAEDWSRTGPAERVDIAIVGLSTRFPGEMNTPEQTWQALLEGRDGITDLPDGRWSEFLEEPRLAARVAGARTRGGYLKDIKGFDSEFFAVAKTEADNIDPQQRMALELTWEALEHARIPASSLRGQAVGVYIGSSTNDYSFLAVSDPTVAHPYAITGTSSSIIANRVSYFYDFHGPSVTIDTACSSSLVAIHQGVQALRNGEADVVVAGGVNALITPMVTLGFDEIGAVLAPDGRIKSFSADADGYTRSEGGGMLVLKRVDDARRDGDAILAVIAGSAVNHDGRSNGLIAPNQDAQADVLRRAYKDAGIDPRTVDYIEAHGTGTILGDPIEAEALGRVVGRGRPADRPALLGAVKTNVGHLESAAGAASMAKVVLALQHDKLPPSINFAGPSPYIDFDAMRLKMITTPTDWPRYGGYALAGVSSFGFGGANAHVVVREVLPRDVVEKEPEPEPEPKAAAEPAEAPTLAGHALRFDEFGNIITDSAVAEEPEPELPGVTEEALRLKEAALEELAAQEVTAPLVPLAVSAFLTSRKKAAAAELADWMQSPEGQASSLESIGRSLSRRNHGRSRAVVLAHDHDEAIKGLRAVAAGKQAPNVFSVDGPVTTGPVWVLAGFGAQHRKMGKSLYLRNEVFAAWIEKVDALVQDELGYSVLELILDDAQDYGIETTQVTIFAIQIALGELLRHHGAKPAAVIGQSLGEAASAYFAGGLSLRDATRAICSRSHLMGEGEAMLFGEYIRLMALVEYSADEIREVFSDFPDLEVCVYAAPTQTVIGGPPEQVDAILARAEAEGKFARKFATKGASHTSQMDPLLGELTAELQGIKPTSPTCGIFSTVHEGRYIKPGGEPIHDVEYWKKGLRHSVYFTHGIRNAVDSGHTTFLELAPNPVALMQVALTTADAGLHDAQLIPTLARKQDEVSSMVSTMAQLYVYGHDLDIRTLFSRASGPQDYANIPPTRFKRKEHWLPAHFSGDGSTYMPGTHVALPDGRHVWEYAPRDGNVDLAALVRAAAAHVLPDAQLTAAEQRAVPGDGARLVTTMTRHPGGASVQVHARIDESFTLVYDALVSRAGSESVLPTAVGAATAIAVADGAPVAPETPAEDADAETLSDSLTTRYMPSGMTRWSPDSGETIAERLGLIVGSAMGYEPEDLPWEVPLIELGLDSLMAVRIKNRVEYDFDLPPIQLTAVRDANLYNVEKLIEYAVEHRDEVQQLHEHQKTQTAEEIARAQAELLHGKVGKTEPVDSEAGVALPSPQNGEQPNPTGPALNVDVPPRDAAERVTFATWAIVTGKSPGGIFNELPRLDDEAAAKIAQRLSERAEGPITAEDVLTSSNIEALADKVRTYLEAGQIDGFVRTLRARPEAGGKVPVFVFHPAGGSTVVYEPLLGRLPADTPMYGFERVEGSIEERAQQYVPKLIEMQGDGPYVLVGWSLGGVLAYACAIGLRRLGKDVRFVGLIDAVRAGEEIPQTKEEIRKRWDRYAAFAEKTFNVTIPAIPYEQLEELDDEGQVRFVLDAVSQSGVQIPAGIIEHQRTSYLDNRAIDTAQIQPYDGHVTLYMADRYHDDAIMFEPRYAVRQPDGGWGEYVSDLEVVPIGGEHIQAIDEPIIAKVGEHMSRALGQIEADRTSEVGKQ

CC1(C)Cc2ccccc2-c2nc(NCCCO)[nH]c(=O)c21
IC50: 28.6 µM and 27.1 µM

CCC1(C)Cc2ccccc2-c2nc(NCCO)nc(O)c21 (stereo unspecified)
IC50: 31.8 µM and 28.8 µM

c1ccc(CCCN2CC[C@H](c3nnc(-c4ccccc4)o3)C2)cc1
IC50: > 100 µM

Cn1cncc1-c1nnc([C@H]2CCN(Cc3ncc[nH]3)C2)o1
IC50: > 100 µM

COc1ccc2nc(C[C@@H]3C[C@@H](C(C)C)[C@H](CN)C=C3C)[nH]c2n1
IC50: > 100 µM

CN(C)c1ccc(-c2nnc([C@H]3CCN(C4CCCCC4)C3)o2)cc1
IC50: > 100 µM

Cc1cccn2c(=O)cc(CSCC(=O)Nc3nnc(C(C)C)s3)nc12
IC50: > 100 µM

CCOC(=O)CNC(=O)NCc1cc(C)n(-c2ccccc2OC)c1C
IC50: > 100 µM

CCC(CC)C(=O)n1ccn(S(=O)(=O)c2ccc(C)cc2)c1=O
IC50: 20 µM and 19.7 µM

CC(=O)N1N=C(c2ccco2)OC1C(=O)NCC(C)C (stereo unspecified)
IC50: > 100 µM

Cc1ccc(C)c(-n2ncc(C(=O)NCC3COC(C)(C)O3)c2N)c1 (stereo unspecified)
IC50: > 100 µM

CCOCCCNC(=O)c1cn(C(C)(C)C)c2ncccc12
IC50: > 100 µM

Cc1cc2c(N)nc(=O)n(CC(=O)Nc3ccccc3)c2s1
IC50: > 100 µM

O=C(Nc1cnc(N2CCOCC2)nc1)c1ccc(C(F)(F)F)cc1
IC50: 22.3 µM and 20.4 µM

Cc1ccnc(OC[C@]23COC[C@H]2CN(C(=O)c2ncccn2)C3)n1
IC50: > 100 µM

O=C1CCCN1Cc1ncn2c1CN(C(=O)NC1CCCC1)CCC2
IC50: > 100 µM

CCn1c(SCC(=O)N2CCCC2)nc2cc(C)[nH]c2c1=O
IC50: > 100 µM

CCc1ccc(C(O)CN2CCN(c3cccc(OC)c3)CC2)cc1 (stereo unspecified)
IC50: 23.2 µM and 27.3 µM

CC1CCc2nc(O)c(C(=O)NCCCN3CCN(C)CC3)cc2C1 (stereo unspecified)
IC50: 31.6 µM and 37.1 µM

COc1ccc(-c2ccnc3nc(N4CCCCC4)[nH]c(=O)c23)cc1
IC50: 19.6 µM and 3.94 µM

N#Cc1cc(C#N)c(SCC(=O)Nc2ccc(F)cc2)nc1N
IC50: 19.3 µM and 21.8 µM

Cn1cc(I)c(C(=O)NCCCn2cc(Br)cn2)n1
IC50: 9.34 µM and 48.9 µM

CCCn1nnc(NCc2ccc(-c3ccc(Br)cc3)o2)n1
IC50: 29.6 µM and > 100 µM

Cc1cccc(-n2nnnc2C(C)(C)Nc2ccccc2C)c1
IC50: 13.8 µM and 11.7 µM

O=C1CNc2ncnc(N3CCN(Cc4ccccc4F)CC3)c2N1
IC50: > 100 µM

O=C(O)CSc1nccc(-c2ccc3c(c2)OCO3)n1
IC50: 16.4 µM and 18.6 µM

CCN(CC)C(=O)c1nnc2ccc(N3CCOCC3)cc2n1
IC50: 6.1 µM and 15.9 µM

O=C1CC(c2ccc(F)c(F)c2)c2snc(C(=O)O)c2N1 (stereo unspecified)
IC50: > 100 µM

Cc1ccccc1S(=O)(=O)N[C@@H]1CC[C@@H](N2CCNC(=O)C2)[C@@H]1O
IC50: > 100 µM

CN(C)C(=O)c1cn[nH]c1C1(C)CCN(c2ncccn2)CC1
IC50: > 100 µM

CC(C)NC(=O)[C@@H]1CN(C(=O)C2CC2)C[C@]12Cc1ccccc1C(=O)N2
IC50: > 100 µM

CC(=O)N1CCCC1c1ccc(Br)cn1 (stereo unspecified)
IC50: > 100 µM

Cc1ccc2nc(C(=O)N(C)[C@@H]3CC[C@@H](N4CCCC4)[C@@H]3O)cn2c1
IC50: > 100 µM

Cc1cc(C)n(-c2nc(C(=O)NCCN3CCC(C)CC3)cs2)n1
IC50: > 100 µM

Cc1ncc(CN)c(-c2cn(C)c3ccccc23)n1
IC50: 89.1 µM and > 100 µM

Cc1n[nH]c(C)c1CCC(=O)NCC1(O)CCN(c2ccccn2)C1 (stereo unspecified)
IC50: > 100 µM

Nc1nccnc1CC1CCCN(Cc2ccnc3ccccc23)C1 (stereo unspecified)
IC50: > 100 µM

Cc1cc(C2CCCCN2C(=O)c2ccsc2)nc2nccn12 (stereo unspecified)
IC50: > 100 µM

O=C(CCc1cc(Cl)no1)N1CCC(c2cc3ncccc3cn2)CC1
IC50: > 100 µM

CCc1nnc(Nc2cccc(C3CCN(C(C)=O)CC3)n2)s1
IC50: > 100 µM

CNc1cncc(C2CCCN2c2cc(C)ncn2)n1 (stereo unspecified)
IC50: 20.5 µM and 30.5 µM

CS(=O)(=O)N1CCCC1c1cccc(Cc2ccccc2F)n1 (stereo unspecified)
IC50: > 100 µM

Cc1nnsc1C(=O)N1CC[C@H](c2ccccc2)[C@@H]2[C@H]1CCCCN2C
IC50: > 100 µM

Cc1ccc2cc(CNCCCN3CCOCC3)c(=O)[nH]c2c1C
IC50: > 100 µM

CC(C)(C)C(=O)N1CCC(n2nc(-c3ccco3)ccc2=O)CC1
IC50: > 100 µM

Cc1ccc(CN2CCCC(c3nn(C)c4nccnc34)C2)s1 (stereo unspecified)
IC50: > 100 µM

Cc1cc(-c2cnn(CCNC(=O)c3snnc3C)c2C2CC2)on1
IC50: > 100 µM

Cc1cc(C)c2cc(CNCc3cccnc3)c3nn(C)c(=O)n3c2c1
IC50: 59.1 µM

CNc1cncc(C2CCCN2C(=O)Cn2c(=O)oc3ccccc32)n1 (stereo unspecified)
IC50: 30.2 µM and > 57.5 µM

Cn1nc(C2CCCN2)c2c(C(=O)NCC(F)(F)F)cc(C3CC3)nc21 (stereo unspecified)
IC50: > 100 µM

Cc1c(C(=O)N2CCOCC2)nnn1-c1ccc2ncccc2c1
IC50: > 100 µM

COc1ccc2nc(C3CC3)cc(C(=O)NCc3noc(C)n3)c2c1
IC50: 21.6 µM and 21.4 µM

Cc1noc(CNc2ccc(CC(=O)N3CCSCC3)cc2)n1
IC50: > 100 µM

Cc1ccc(C(=O)N2CCN(c3ncnc4nc(N)ccc34)CC2)o1
IC50: > 100 µM

CN1CCc2ccc(NCc3cccs3)cc2C1=O
IC50: > 100 µM

COC(=O)c1ccc(NC2CCN(CC(F)(F)F)C2=O)cc1C (stereo unspecified)
IC50: > 100 µM

CCC(CNC(=O)COC)Oc1cccc(F)c1 (stereo unspecified)
IC50: > 100 µM

NC(=O)c1cc(C2CC2)nc2ccc(F)cc12
IC50: > 100 µM

CCc1noc(Cn2c(=O)c3c(C(F)(F)F)cc(C)nc3n2C)n1
IC50: 36 µM and 34.8 µM

CC(=O)N1CCC(NC(=O)c2cc(Cl)ccc2O)CC1
IC50: > 100 µM and 80.2 µM

CC(NC(=O)NCC(C)(C)C(N)=O)c1nc(-c2ccccc2)cs1 (stereo unspecified)
IC50: > 100 µM

Cc1nc(CNC(=O)N2CCN(c3ccc(Cl)cn3)CC2)sc1C
IC50: 42.5 µM and 31.5 µM

CC(C)(C)OCCN1CCCC1c1nc(Cc2ccc(F)cc2)no1 (stereo unspecified)
IC50: > 100 µM

COC(=O)C(C)(C)NC(=O)c1cc2sc(N(C)C)nc2s1
IC50: 21.9 µM and 10.8 µM

O=C(OCC1CCN(c2ccccc2)C1)c1cscn1 (stereo unspecified)
IC50: 29.9 µM and 4.14 µM

COCc1nc(C(=O)OCC2CCN(c3ccccc3)C2)cs1 (stereo unspecified)
IC50: > 100 µM and 16 µM

Cn1c(NCC(=O)N2CCCC2)c(C#N)c(=O)n(C)c1=O
IC50: > 100 µM

O=C(c1ccc(-n2cc(Br)cn2)cc1)N1CCN(c2cnccn2)CC1
IC50: 2.63 µM and 3.37 µM

O=C(c1ccc(-n2ccnc2)cc1)N1CCN(c2cnccn2)CC1
IC50: > 100 µM

O=C(NCc1ccc2c(c1)OCCO2)N1CCC(CO)CC1
IC50: > 100 µM

COC(=O)c1sc2cccc(F)c2c1CNC(=O)C1CCOC1 (stereo unspecified)
IC50: > 100 µM

COc1cc2nc(NCc3cc(C)on3)nc(N)c2cc1OC
IC50: > 100 µM and 89.5 µM

CCCNC(=O)CCNc1cncc(-n2nc(C)cc2C)n1
IC50: 28 µM and 22 µM

Cc1cc(C)n(-c2cncc(NCCNS(C)(=O)=O)n2)n1
IC50: 20.9 µM and 8.18 µM

Cc1cc(C)n(-c2cncc(NCCC(=O)NC(C)C)n2)n1
IC50: 24.1 µM and 15.2 µM

Cc1cnn(CC2CCCN2Cc2cc(=O)n3cc(C)ccc3n2)c1 (stereo unspecified)
IC50: > 100 µM and 95.9 µM

CCC(=O)NCC(=O)NCC(C)(C)c1cccc(Br)c1
IC50: > 100 µM

Cc1cc(S(=O)(=O)Nc2cccc(I)c2)sc1C(=O)O
IC50: 6.1 µM and 15.1 µM

CCc1cccc(NS(=O)(=O)c2cc(C)c(C(=O)O)s2)c1
IC50: 16.6 µM and 11.6 µM

Cc1cc(S(=O)(=O)Nc2cccc(OC(F)F)c2)sc1C(=O)O
IC50: 16.4 µM and 3.37 µM

Cc1ccc(CNC(=O)C2CCCCN2C(=O)OC(C)(C)C)cn1 (stereo unspecified)
IC50: > 100 µM

COc1ccc(NC(C)C(=O)N2CCCC2)cn1 (stereo unspecified)
IC50: > 100 µM

CC1(NC(=O)Cc2csc(NC(=O)c3ccccc3)n2)CCS(=O)(=O)C1 (stereo unspecified)
IC50: > 100 µM

N#Cc1ccc(C(=O)O)nc1/C=C/c1cccc(Cl)c1
IC50: > 100 µM

CCc1cccc(C)c1NC(=O)C1CC(=O)N(Cc2ccccn2)C1 (stereo unspecified)
IC50: > 100 µM

CC(C)(C)c1nc(CN(CCC2CCCCC2)CC(N)=O)no1
IC50: > 100 µM

Cc1ccc(C)c(OC2CCN(C(=O)CNc3ccccc3Cl)CC2)c1
IC50: 10.7 µM and 12.7 µM

Cc1nc(CN(C)C(=O)NC(C)c2ccc3c(c2)OCCO3)cs1 (stereo unspecified)
IC50: > 100 µM

CS(=O)(=O)CCCSc1n[nH]c(-c2ccc3c(c2)CCC3)n1
IC50: 5.44 µM and 19.5 µM

Cc1cccc(OC2CCN(c3nccnc3C#N)CC2)n1
IC50: 42.2 µM and 46 µM

CC(Nc1cnn(C)c(=O)c1Cl)c1ccc(F)c(F)c1 (stereo unspecified)
IC50: > 100 µM

O=C(Nc1cc(CSCCO)ccn1)c1ccc(Cl)o1
IC50: > 100 µM and 98.1 µM

Cc1cc(NCc2cccc(C#N)c2)ccc1Br
IC50: 20.6 µM and 18 µM

CC(NC(=O)N1CCC(CO)CC1)c1csc2ccccc12 (stereo unspecified)
IC50: > 100 µM

NC(=O)CCSc1ccccc1NCc1ccc(Cl)s1
IC50: 6.92 µM and 6.81 µM

Cc1nc(-c2ccc(Cl)s2)sc1C(=O)N(C)CC(N)=O
IC50: 30.9 µM and 43.8 µM

NC(=O)N1CCCN(CCc2nc(-c3cccc(Cl)c3)no2)CC1
IC50: > 100 µM

CC(C)N1Cc2cccc(NCC(=O)N(C)C3CCCCC3)c2C1
IC50: > 100 µM

O=C(COCc1ccccc1Cl)N1CCN(c2ccc(Br)cn2)CC1
IC50: 26.1 µM and 19.2 µM

CN(Cc1ccc(N2CCCCC2)cc1)Cc1noc(C(C)(C)C)n1
IC50: > 100 µM

CCOCC1CN(C(=O)c2cccs2)Cc2cnn(CC3CC3)c21 (stereo unspecified)
IC50: > 100 µM

Cn1cc(-c2ncc3c(c2C(=O)O)CCN(CC2CCOC2)C3)cn1 (stereo unspecified)
IC50: > 100 µM

CC1=N[C@@]2(CC[C@@H]3CN(S(C)(=O)=O)C[C@@H]32)C(=O)N1CC(C)C
IC50: > 100 µM

CN(C)CC(=O)N1Cc2nc(C(=O)NCc3ccccc3)oc2C1
IC50: > 100 µM

Cc1ncc(CNCC(C)O)c2cc(C(=O)c3ccc(Br)cc3)oc12 (stereo unspecified)
IC50: > 100 µM

O=C1CC(NCc2cnc(N3CCCC3)nc2)CN1c1ccccc1 (stereo unspecified)
IC50: > 100 µM

O=C(C1CC1)N1CCc2ccccc2C12CCNCC2
IC50: > 100 µM

CN(C[C@@H]1CCC[C@@H]2CN(c3ncccn3)C[C@@H]21)C1CC1
IC50: > 100 µM

Cn1cc(C[C@H]2[C@H](N3CCOCC3)CCN2c2ncc(F)cn2)cn1
IC50: > 100 µM

COc1cccc(CN2CCC3(CCN(c4ncc(C)cn4)CC3)C2)c1
IC50: > 100 µM

O=C(c1ccco1)N1CCO[C@@H]2CN(c3ccccn3)CC[C@@H]2C1
IC50: > 100 µM

Cc1noc([C@@H]2C[C@H]3OCC[C@H]3N(S(=O)(=O)c3cccnc3)C2)n1
IC50: > 100 µM

O=C(Cc1cccc(F)c1)N1CCc2ncnc(NC3CC3)c2CC1
IC50: > 100 µM

CCOC1CC2(CCN(C(=O)Cc3ccccn3)CC2)C1
IC50: > 100 µM

Cn1ccnc1C(=O)N1C[C@@H]2CCN(c3cnccn3)C[C@@H]2C1
IC50: > 100 µM

CC(C)OCc1ncn2c1CN(Cc1nccs1)CCC2
IC50: > 100 µM

CN(C)c1ncnc2c1CCN(C(=O)c1cccnc1)CC2
IC50: > 100 µM

CNC(=O)CNC1CC2(CCN(c3ncccn3)CC2)c2ccccc21 (stereo unspecified)
IC50: > 100 µM

CCOCCN1Cc2ncn(C)c2C(COCC2CCOCC2)C1 (stereo unspecified)
IC50: > 100 µM

Cn1ncc2c1CN(Cc1cccnc1)CC2COCC1CC1 (stereo unspecified)
IC50: > 100 µM

CCN(CC)C(=O)c1cc(C2CCCN2C)ccn1 (stereo unspecified)
IC50: > 100 µM
